From patent publication US20150057465A1, “CONTROL OF GROWTH-INDUCTION-PRODUCTION PHASES” (OPX BIOTECHNOLOGIES, INC., priority 2013, published 2015)
Entries after “also recorded” stand apart in the source; their conditions may differ. Like-named read-outs stand apart in the source and are kept apart here.

What was measured:
E. coli strains = experiment: Growth inhibition of E. coli strains grown in the presence of 3-HP; type: cell-based
E. coli ACCase = E. coli ACCase (Escherichia coli, UniProt P0A9Q5+P0ABD5+P0ABD8+P24182); conditions: for effect of salt on ACCase activity: E. coli ACCase, dose-dependent studies, FIG. 4; for decrease of the activity of the ACCase enzyme: relative to control (FIG. 4)
Experimental: Levels of greater than 0.66M (60 g/L) are expected to be present for commercially viable commercial production of 3-HP.
Each gene was amplified by PCRs with Pfu Ultra II HS using the manufacturer's instructions, and the PCR products were purified using the Zymo PCR Cleanup kit. Concentrations of products were measured using the Nanodrop spectophotometer. The Gibson Assembly kit (NEB) was used to construct plasmids expressing the ACCase subunit genes as directed by the manufacturer. The effect of NH4-3-HP and NH4Cl on H. elongata ACCase was tested and compared to the E. coli ACCase.

H. elongata ACCase = experiment: Salt inhibition of H. elongata ACCase activity; type: biochemical, Halomonas elongata; conditions: ACCase from the halophile H. elongata, compared to E. coli ACCase, FIG. 4
Experimental: Accordingly, the genes encoding the accA, accB, accC, accD of H. elongata described in Table 1 were synthesized for expression in E. coli using codons optimized for this organism and supplied individually on pUC57 plasmids without promoters. Synthetic operons comprising the subunits were assembled using the Gibson assembly method.
Concentrations of products were measured using the Nanodrop spectophotometer.

3HP titer = experiment: 1 L fermentation with overexpression of rhtA exporter, 3HP titer; type: cell-based, E. coli; conditions: compared to control plasmid without rhtA, FIG. 7
Experimental: A known chemical exporter from E. coli that has been previously characterized for homoserine transport, rhtA, was evaluated for increased production of 3-HP. A mutant version of the exporter, rhtA(P2S) (SEQ ID NO. 30 nucleic acid, SEQ ID NO. 31 protein) was synthesized behind the PtpiA promoter and inserted into the pTRC-PyibD-MCR plasmid behind a terminator using the Gibson Assemply kit (NEB) according to manufacturer's instructions. The effects of overexpression of rhtA were evaluated in 1 L fermentation compared to the control plasmid without rhtA. […] Construction of plasmids expressing another putative transporter, ydcO (SEQ ID NO. 32 nucleic acid, SEQ ID NO. 33 protein) is carried out in the same manner.

[1] = salts of 3-HP levels near 0.66M

E. coli ACCase, sequence (P0A9Q5 whole entry): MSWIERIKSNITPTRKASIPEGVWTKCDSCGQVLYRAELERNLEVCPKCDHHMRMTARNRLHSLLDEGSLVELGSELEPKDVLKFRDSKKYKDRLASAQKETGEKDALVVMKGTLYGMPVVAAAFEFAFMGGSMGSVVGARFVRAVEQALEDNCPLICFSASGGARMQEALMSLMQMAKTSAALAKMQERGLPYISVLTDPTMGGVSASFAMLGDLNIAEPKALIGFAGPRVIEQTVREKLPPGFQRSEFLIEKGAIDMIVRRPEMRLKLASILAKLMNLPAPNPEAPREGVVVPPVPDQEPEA
E. coli ACCase, sequence (P0ABD5 whole entry): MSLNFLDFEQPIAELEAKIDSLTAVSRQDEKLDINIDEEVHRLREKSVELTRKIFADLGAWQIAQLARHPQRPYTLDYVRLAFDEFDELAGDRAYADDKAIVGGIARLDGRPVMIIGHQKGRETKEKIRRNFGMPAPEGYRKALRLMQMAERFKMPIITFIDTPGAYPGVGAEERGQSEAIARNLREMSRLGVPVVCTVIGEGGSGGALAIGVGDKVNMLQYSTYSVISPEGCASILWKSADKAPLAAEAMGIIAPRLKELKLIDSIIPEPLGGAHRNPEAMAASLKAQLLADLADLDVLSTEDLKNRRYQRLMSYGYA

Q: How did the “3-HP level at which growth inhibition was demonstrated” value (E. coli strains) turn out when `O=C(O)CCO` [3-HP, 3-hydroxypropionic acid] was run?
A: ≥ 20 g/L

Q: How did the “effect of salt on ACCase activity” value (E. coli ACCase) turn out when `N.O=C(O)CCO` [NH4-3-HP] was run?
A: significantly inhibited

Q: What about the “decrease of the activity of the ACCase enzyme” value (shortened to “decrease”) (E. coli ACCase; [1]) of the same molecule?
A: approximately 80%

Q: What about the “effect of salt on ACCase activity” value (H. elongata ACCase) of the same molecule?
A: less affected

Q: Which results are given for `Cl.N` [NH4Cl]?
A: effect of salt on ACCase activity (E. coli ACCase): significantly inhibited; decrease of the activity of the ACCase enzyme (E. coli ACCase; salt levels near 0.44M): approximately 80%; effect of salt on ACCase activity (H. elongata ACCase): less affected

Q: Which “effect of salt on ACCase activity” value (E. coli ACCase) does the source give for `O=C([O-])CCO.[Na+]` [Na-3-HP] here?
A: inhibitory effects

Q: And the “decrease” value (E. coli ACCase; [1])?
A: approximately 80%

Q: `[Cl-].[Na+]` [NaCl] was tested. Which “effect of salt on ACCase activity” value (E. coli ACCase) did it give?
A: inhibitory effects

Q: And the “decrease” value (E. coli ACCase; salt levels near 0.44M)?
A: approximately 80%

B1: rhtA: chemical exporter from E. coli characterized for homoserine transport; mutant rhtA(P2S), SEQ ID NO. 30, 31, overexpressed (protein)
chain: MSGSLRKMPVWLPIVILLVAMASIQGGASLAKSLFPLVGAPGVTALRLALGTLILIAFFKPWRLRFAKEQRLPLLFYGVSLGGMNYLFYLSIQTVPLGIAVALEFTGPLAVALFSSRRPVDFVWVVLAVLGLWFLLPLGQDVSHVDLTGCALALGAGACWAIYILSGQRAGAEHGPATVAIGSLIAALIFVPIGALQAGEALWHWSVIPLGLAVAILSTALPYSLEMIALTRLPTRTFGTLMSMEPALAAVSGMIFLGETLTPIQLLALGAIIAASMGSTLTVRKESKIKELDIN
notes: chemical exporter from E. coli characterized for homoserine transport; 30, 31, overexpressed
Q: With B1 as the molecule, how does the “3HP titer” value (3HP titer) read?
A: improved production of 3-HP; also recorded: significant improvement in 3HP titer
